Source: patent publication US20120232066A1, “COMPOSITIONS FOR REDUCING RISK OF ADVERSE EVENTS CAUSED BY DRUG-DRUG INTERACTIONS” (priority 2011, published 2012)

Columns and labels:
[1] = Oral administration of Compound PC-1 and SBTI trypsin inhibitor to rats; hydromorphone in blood; details: for Cmax (ng/mL HM): hydromorphone in rat blood, PO PC-1 20 mg/kg
Protocol: At specified time points, blood samples were drawn, quenched into methanol, centrifuged at 14,000 rpm @ 4° C., and stored at −80° C. until analysis by high performance liquid chromatography/mass spectrometry (HPLC/MS).

[2] = Oral administration of Compound KC-17 co-dosed with Compound 109 to rats; oxycodone in plasma; format: in vivo, rat; details: KC-17 50 mg/kg
Protocol: At specified time points, blood samples were drawn, harvested for plasma via centrifugation at 5,400 rpm at 4° C. for 5 min, and 100 microliters (μl) plasma transferred from each sample into a fresh tube containing 2 μl of 50% formic acid. The tubes were vortexed for 5-10 seconds, immediately placed in dry ice, and then stored in a −80° C. freezer until analysis by HPLC/MS.

[3] = Oral administration of Compound AM-2 and Compound 109 to rats; amphetamine in plasma; format: in vivo, rat; details: suppressing Cmax and delaying Tmax
From the text: Table 10 and FIG. 10 provide amphetamine exposure results for rats administered with Compound AM-2 and with or without a co-dose of trypsin inhibitor.

Molecule: CC(=O)NC(CCCNC(=N)N)C(=O)NCCN(C)C(=O)Oc1ccc2c3c1OC1C(=O)CCC4C(C2)N(C)CCC314 (stereo not drawn) [Compound PC-1, Hydromorphone 3-(N-methyl-N-(2-N′-acetylarginylamino)) ethylcarbamate]
- Cmax (ng/mL HM) ([1]; SBTI 0 mg/kg): 16.5 ± 5.3 ng/mL
- Cmax (ng/mL HM) ([1]; SBTI 10 mg/kg): 8.9 ± 1.8 ng/mL
- Cmax (ng/mL HM) ([1]; SBTI 100 mg/kg): 6.0 ± 4.0 ng/mL
- Cmax (ng/mL HM) ([1]; SBTI 500 mg/kg): <5 ng/mL
- Cmax (ng/mL HM) ([1]; SBTI 1000 mg/kg): <5 ng/mL

Molecule: N=C(N)c1ccc2cc(OC(=O)c3ccc(N=C(N)N)cc3)ccc2c1 [Compound 109, 6-carbamimidoylnaphthalen-2-yl 4-(diaminomethyleneamino)benzoate]
- effect of Compound 109 on oxycodone release from Compound KC-17 [2]: attenuate release of oxycodone by prodrugs of the embodiments
- effect of Compound 109 on amphetamine release from Compound AM-2 [3]: ability to attenuate

B1: SBTI: trypsin inhibitor from Glycine max (soybean) (Catalog No. 93620, ~10,000 units per mg, Sigma-Aldrich) (protein, UniProt P01070 25-205, looked up)
Trypsin inhibitor A: DFVLDNEGNPLENGGTYYILSDITAFGGIRAAPTGNERCPLTVVQSRNELDKGIGTIISSPYRIRFIAEGHPLSLKFDSFAVIMLCVGIPTEWSVVEDLPEGPAVKIGENKDAMDGWFRLERVSDDEFNNYKLVFCPQQAEDDKCGDIGISIDHDDGTRRLVVSKNKPLVVQFQKLDKESL
- effect of SBTI on hydromorphone release from Compound PC-1 into blood ([1]; rats PO, PC-1 20 mg/kg and 10, 100, 500 or 1000 mg/kg SBTI): suppresses Cmax and delays Tmax
- attenuation of Compound PC-1's ability to release hydromorphone ([1]; rats PO, PC-1 20 mg/kg, at higher SBTI concentrations): approximately 100%
